Reference: patent US10344002B2, “Compositions and methods for treating metabolic disorders” (NuSirt Sciences, Inc., priority 2016, dated 2019)

Columns and labels:
Sir2 = test: Western blot, Sir2 protein expression in C. elegans treated from L1 stage to adulthood; format: in vivo; conditions: for Sir2 protein expression, fold change of control (FIG. 7A): 3 days
Method: (§1) C. elegans culture: Synchronized L1 wild-type worms were transferred to NGM agar plates with the following treatments until adulthood (3 days): 1. control NGM plates, 2. NGM plate with 10 nM Compound 2 added to E. coli suspension, 3. NGM plate with 100 nM Compound 2 added to E. coli suspension.
(§2) Western blots: Phospho-AMPK, AMPK, Phospho-ACC, ACC antibodies were obtained from Cell Signaling (Danvers, Mass.). Sir2 antibody was obtained from MyBiosource (San Diego, Calif.). Protein levels of cell extracts were measured by BCA kit (Thermo Scientific, Pittsburgh, Pa.). For Western blot, 10-50 μg protein was resolved on 4-15% gradient polyacrylaminde gels (Criterion precast gel, Bio-Rad Laboratories, Hercules, Calif.), transferred to either PVDF or nitrocellulose membranes, incubated in blocking buffer (3% BSA or 5% non-fat dry milk in TBS) and then incubated with primary antibody (1:1000 dilution), washed and incubated with horseradish peroxidase- or fluorescence-conjugated secondary antibody (1:10000 dilution). Visualization was conducted using BioRad ChemiDoc instrumentation and software (Bio-Rad Laboratories, Hercules, Calif.) and band intensity was assessed using Image Lab 4.0 with correction for background and loading controls.

adiponectin = test: Adiponectin gene expression (real-time PCR) in 3T3L1 adipocytes; format: cell-based; conditions: for adiponectin expression, fold change to control (FIG. 8): 48 hours
Method: Cell Culture: 3T3L1 adipocytes were seeded with 20,000 cells per well on 96-well tissue culture plates in DMEM containing 10% FBS and 1% penicillin-streptomycin. After reaching confluency (3 days), cells were induced to differentiate with a standard differentiation media (DM2-L1, Zen-Bio Inc., NC) for 3 days, then cells were maintained in DMEM (10% FBS, 1% penicillin-streptomycin) for another 8 days to induce lipid accumulation. Cells were then treated with indicated concentration of Compound 2 for 48 hours.
(§3) Compound 2 was dissolved in 100% DMSO to a stock concentration of 100 mM. This stock was further diluted to indicated concentrations in DMEM media.
Gene Expression: 3T3L1 adipocytes were grown and treated as described above. The medium was removed and the cells were washed with cold PBS. Cells Lysis, reverse transcription and real-time PCR was performed according to the instructions of the TaqMan® Gene Expression Cells-to-CT™ Kit manual (Life Technologies Inc, Cat #4399002). cDNA was probed with adiponectin and normalized to 18S.

AMPK [1] = test: Western blot, phosphorylated/total AMPK in 3T3L1 adipocytes; format: cell-based; conditions: 48 hours; for ratio of phosphorylated/total AMPK (FIG. 5): control approximately 1.52
Method: 3T3L1 adipocytes were seeded with 200,000 cells per well on 6-well tissue culture plates in Dulbecco's modified eagle's medium (DMEM) containing 10% fetal bovine serum (FBS) and antibiotics (1% penicillin-streptomycin) at 37° C. in 5% CO2. After reaching confluency (3 days), cells were induced to differentiate with a standard differentiation media (DM2-L1, Zen-Bio Inc., NC) for 3 days, then cells were maintained in DMEM (10% FBS, 1% penicillin-streptomycin) for another 11 days to induce lipid accumulation. Cells were then treated with indicated concentration of Compound 2 for 48 hours.
as §3, §2

AMPK [2] = test: Western blot, P-AMPK/AMPK in C. elegans treated from L1 stage to adulthood; format: in vivo; conditions: for ratio of P-AMPK/AMPK (FIG. 7B): 3 days, control approximately 0.18
Method: as §1, §2

HepG2 liver cells = test: Lipid accumulation (Oil Red Staining) in HepG2 liver cells induced with high glucose plus insulin; format: cell-based; conditions: 48 hours
Method: Cell Culture: HepG2 liver cells were seeded with 80,000 cells per well on 24-well tissue culture plates in low glucose (5 mM) DMEM containing 10% FBS and antibiotics. After 24 hours of attachment, lipid accumulation was induced by incubating cells with high glucose (25 mM) DMEM (10% FBS, 1% Pen-Strep) plus 100 nM insulin for 48 hours. Cells were then treated with indicated concentrations of Compound 2 for an additional 48 hours.
as §3
(§4) Lipid accumulation (Oil Red Staining): HepG2 liver cells were seeded and treated as described above. After 48 hours of treatment with Compound 2, lipid accumulation in HepG2 was measured via Oil Red Staining. Cells were washed with phosphate buffered saline (PBS) once, then cells were fixated with 10% formalin for 1 hour. After removal of the formalin, cells were washed with ddH2O twice, then washed with 60% isopropanol. Cells were dried completely. Cells were stained with Oil Red working solution (˜5 mM) for 25 minutes, then immediately washed with ddH2O four times, then dried completely again. Oil Red dye was eluted with 100% isopropanol and absorbance was read at 500 nm. Unstained cells plus isopropanol was used as a blank and subtracted from all readings. Data are represented as mean±SEM for each treatment group.

3T3L1 adipocytes [3] = test: Fatty acid oxidation (oxygen consumption rate) in 3T3L1 adipocytes; format: cell-based; conditions: for baseline OCR, area under the curve (FIG. 10A): control approximately 6000; for palmitate induced OCR, area under the curve (FIG. 10B): control approximately 52000
3T3L1 adipocytes [4] = test: Lipid accumulation (Oil Red Staining) in 3T3L1 adipocytes; format: cell-based; conditions: 72 hours; for Oil Red absorbance (FIG. 11): control approximately 0.66
Method: Cell Culture: 3T3L1 adipocytes were seeded with 80,000 cells per well on 24-well tissue culture plates in high glucose (25 mM) DMEM containing 10% FBS and antibiotics. After reaching confluency (3 days), cells were induced to differentiate with a standard differentiation media (DM2-L1, Zen-Bio Inc., NC) for 3 days, then cells were maintained in DMEM (10% FBS, 1% penicillin-streptomycin) for another 8 days to induce lipid accumulation. Cells were then treated with indicated concentration of Compound 2 for 72 hours.
as §3
as §4, with “3T3L1 adipocytes” for “HepG2 liver cells”, “72” for “48”, “adipocytes” for “HepG2”

`CC(C)C[C@@H]1NC(N=C(N)N)=NC1=O` [Compound 2] was tested. Which “Sir2 protein expression, fold change of control (FIG. 7A)” value (Sir2; 10 nM) did it give?
Its value is “approximately 1.65 fold change”.

What about the “Sir2 protein expression, fold change of control (FIG. 7A)” value (Sir2; 100 nM) of the same compound?
Its value is “approximately 1.5 fold change”.

What about the “increase in Sir2 protein expression” value (Sir2; L1 stage to adulthood (3 days), p=0.03) of the same compound?
The value was “up to 60%”.

And the “increase of adiponectin gene expression” value (adiponectin; 10 nM and 100 nM, 48 hour treatment)?
The value was “approximately 35%”.

And the “adiponectin expression, fold change to control (FIG. 8)” value (adiponectin; 10 nM)?
The value was “approximately 1.35 fold change”.

What about the “adiponectin expression, fold change to control (FIG. 8)” value (adiponectin; 100 nM) of the same compound?
The value was “approximately 1.4 fold change”.

And the “ratio of phosphorylated/total AMPK (FIG. 5)” value (AMPK [1]; 10 nM)?
Its value is “approximately 1.5”.

And the “ratio of phosphorylated/total AMPK (FIG. 5)” value (AMPK [1]; 100 nM)?
Its value is “approximately 2.0”.

And the “increase in the ratio of phosphorylated to total AMPK protein expression” value (AMPK [1]; 100 nM, p=0.0004)?
Its value is 35%.

What about the “ratio of P-AMPK/AMPK (FIG. 7B)” value (AMPK [2]; 10 nM) of the same compound?
Its value is “approximately 0.27”.

What about the “ratio of P-AMPK/AMPK (FIG. 7B)” value (AMPK [2]; 100 nM) of the same compound?
The value was “approximately 0.26”.

What about the “increase of P-AMPK/AMPK protein expression” value (AMPK [2]; L1 stage to adulthood (3 days), p=0.06) of the same compound?
Its value is “approximately 50%”.

What about the “effect on fat accumulation” value (HepG2 liver cells; HepG2, all tested concentrations (1 nM to 10 uM)) of the same compound?
Its value is “significantly reduced”.

What about the “reduction of fat accumulation (highest effect)” value (HepG2 liver cells; HepG2, high glucose (25 mM) DMEM plus 100 nM insulin, 10 nM, p<0.025) of the same compound?
The value was “up to 40%”.

What about the “increase of baseline OCR” value (3T3L1 adipocytes [3]; 10 nM, 48 hours of treatment) of the same compound?
Its value is 50%.

And the “increase of palmitate stimulated OCR” value (3T3L1 adipocytes [3]; 10 nM, 48 hours of treatment)?
The value was 43%.

And the “baseline OCR, area under the curve (FIG. 10A)” value (3T3L1 adipocytes [3]; 10 nM)?
Its value is “approximately 7900 pMoles/min”.

What about the “palmitate induced OCR, area under the curve (FIG. 10B)” value (3T3L1 adipocytes [3]; 10 nM) of the same compound?
The value was “approximately 78000 pMoles/min”.

And the “effect on baseline and palmitate stimulated OCR” value (3T3L1 adipocytes [3]; 100 nM, compared with 10 nM)?
The value was “smaller effect”.

What about the “baseline OCR, area under the curve (FIG. 10A)” value (3T3L1 adipocytes [3]; 100 nM) of the same compound?
Its value is “approximately 7000 pMoles/min”.

And the “palmitate induced OCR, area under the curve (FIG. 10B)” value (3T3L1 adipocytes [3]; 100 nM)?
The value was “approximately 62000 pMoles/min”.

And the “Oil Red absorbance (FIG. 11)” value (3T3L1 adipocytes [4]; 1 nM, 500 nm)?
The value was “approximately 0.57”.

And the “Oil Red absorbance (FIG. 11)” value (3T3L1 adipocytes [4]; 10 nM, 500 nm)?
Its value is “approximately 0.58”.

And the “Oil Red absorbance (FIG. 11)” value (3T3L1 adipocytes [4]; 50 nM, 500 nm)?
Its value is “approximately 0.53”.

And the “Oil Red absorbance (FIG. 11)” value (3T3L1 adipocytes [4]; 100 nM, 500 nm)?
Its value is “approximately 0.54”.

What about the “Oil Red absorbance (FIG. 11)” value (3T3L1 adipocytes [4]; 200 nM, 500 nm) of the same compound?
Its value is “approximately 0.51”.

What about the “Oil Red absorbance (FIG. 11)” value (3T3L1 adipocytes [4]; 350 nM, 500 nm) of the same compound?
The value was “approximately 0.55”.

And the “Oil Red absorbance (FIG. 11)” value (3T3L1 adipocytes [4]; 500 nM)?
Its value is “approximately 0.68”.

And the “reduction in lipid accumulation (plateau effect)” value (3T3L1 adipocytes [4]; 50 to 350 nM, p<0.05)?
Its value is “up to 23%”.

And the lipid reducing effect (3T3L1 adipocytes [4]; higher concentration (500 nM))?
The lipid reducing effect was “lost”.
